Data on 3 compounds can be found in US10328075B2, “Method of treatment and compounds for use therein” (Baker Heart and Diabetes Institute, priority 2015, dated 2019).

The target in one assay is T1, hFPR1 (Homo sapiens, UniProt P21462).
T1 construct: expressed in transfected cells
T1 sequence (P21462 1-350): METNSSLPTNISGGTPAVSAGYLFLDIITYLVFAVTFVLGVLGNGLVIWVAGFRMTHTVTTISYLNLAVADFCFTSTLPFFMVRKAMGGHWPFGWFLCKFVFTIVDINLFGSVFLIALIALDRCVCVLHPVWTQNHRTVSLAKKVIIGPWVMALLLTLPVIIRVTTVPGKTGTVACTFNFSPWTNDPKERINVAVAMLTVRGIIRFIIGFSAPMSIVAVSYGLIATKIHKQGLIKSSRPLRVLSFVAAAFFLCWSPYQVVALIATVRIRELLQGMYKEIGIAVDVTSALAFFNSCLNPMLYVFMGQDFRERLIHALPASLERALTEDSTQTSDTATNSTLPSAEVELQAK
Kind of assay: [Ca2+]i mobilization in FlpIn-CHO cells stably expressing hFPR1. It counts as cell-based. Set-up: Calcium Rmax: unit not given here. Conditions: for Emax: Flp-In-CHO. The text has this:
(§1) cDNDA construct and generation of stable cell lines: cDNA in pcDNA3.1^+ encoding the human formyl peptide receptors (FPR) subtypes, hFPR1, hFPR2 and hFPR3 was obtained from Invitrogen. The sequences for 3 hFPR receptors were amplified by PCR and cloned into the Gateway entry vector, pDONR202™, using the BP clonase enzyme mix, according to the manufactures' instructions (Invitrogen Inc, Carlsbad, Calif., USA). All hFPR receptors constructs in pDONR201™ were subsequently transfected into the pEF5/FRT/V5/dest vector using the LR clonase enzyme mix (Invitrogen). Receptor constructs (pEF5/FRT/V5/dest) were used to transfect FIp-In CHO cells as described previously (Valant C et al., PNAS, 2014). Cells were selected using 500 μg/mL hydromycin to generate cell lines stably expressing each receptor construct. Cells were maintained and cultured in high glucose DMEM supplemented with 10% FBS, 16 mM HEPES and 500 μg/mL hydromycin at 37° C. under a humidified atmosphere containing 5% CO2.
(§2) In the various assays described below, cells were plated into 96-well transparent cell culture plates at 4×10^4 cells per well, cultured overnight in serum-free media at 37° C. in 5% CO2.
Intracellular calcium mobilization: Intracellular calcium mobilization was assayed as described previously (Keov, P et al., 2014). Briefly, cells were washed once using HEPES buffered saline (HBS) solution [150 mM NaCl, 2.2 mM CaCl2, 2.6 mM KCl, 1.2 mM MgCl2, 10 mM HEPEs, 10 mM D-Glucose, 0.5% (w/v) bovine serum albumin (BSA) and 4 mM probenecid] at pH 7.4, then treated with Fluo-4-AM (1 μM, in HBS/BSA/probenecid) for 60 min at 37° C. in 5% CO2 in the dark. Cells were then further washed and placed in HBS/BSA/probenecid solution for ligation addition and assay using the FLEXstation 3 plate reader (Molecular Devices, Sunnyvale, Calif.). For all experiments, peak change in fluorescence signal was normalized to the cellular response to 100 μM ATP, which was used as an internal positive control.
(§3) Data analysis: All data were analysed using GraphPad Prism 6.0 (GraphPad Software, San Deigo, Calif., USA). Where appropriate, concentration-response curves were fitted to derive the maximal agonist effect (Emax), and the ligand potency estimate (pEC50), where Emax is the maximal possible response of the system (not the agonist), basal is the basal level of response in the absence of agonist, and pEC50 is the negative logarithm of the agonist concentration that gives a response halfway between Emax and basal.
(§4) In the present study, FIp-IN CHO cells and Gateway plasmid were obtained from Invitrogen Inc (Carlsbad, Calif., USA). The sequences for all 3 known human FPRs (hFPR1, hFPR2 and hFPR3) were amplified by PCR and cloned into the Gateway entry vector, pDONR202TM, using the BP clonase enzyme mix, according to the manufacturers' instructions. The hFPR pDONR201TM constructs were subsequently transfected into the pEF5/FRT/V5/dest vector using the LR clonase enzyme mix (Invitrogen). Receptor constructs (pEF5/FRT/V5/dest) were used to transfect FIp-IN CHO cells, as described previously (Valant et al. 2014). Cells were selected using 500 μg/mL hydromycin to generate cell lines stably expressing each human receptor construct. Cells were maintained and cultured in high glucose Dulbecco's modified eagle medium (DMEM) supplemented with 10% fetal bovine serum (FBS, from JRH Biosciences, Lenexa, Kans., USA) and 500 μg/mL hydromycin B (Invitrogen Inc) at 37° C. under a humidified atmosphere containing 5% CO2. Cell were plated into 96-well transparent cell culture plates at 4×10^4 cells per well, cultured overnight in serum-free media at 37° C. in 5% CO2.
(ii) Intracellular Ca2+ mobilization: Intracellular Ca2+ mobilization was determined in stably-transfected recombinant hFPR CHO cells, as described previously (Valant et al. 2014).

A further assay concerns the target T2, hFPR2 (Homo sapiens, UniProt P25090).
T2 construct: expressed in transfected cells
T2 sequence (P25090 1-351): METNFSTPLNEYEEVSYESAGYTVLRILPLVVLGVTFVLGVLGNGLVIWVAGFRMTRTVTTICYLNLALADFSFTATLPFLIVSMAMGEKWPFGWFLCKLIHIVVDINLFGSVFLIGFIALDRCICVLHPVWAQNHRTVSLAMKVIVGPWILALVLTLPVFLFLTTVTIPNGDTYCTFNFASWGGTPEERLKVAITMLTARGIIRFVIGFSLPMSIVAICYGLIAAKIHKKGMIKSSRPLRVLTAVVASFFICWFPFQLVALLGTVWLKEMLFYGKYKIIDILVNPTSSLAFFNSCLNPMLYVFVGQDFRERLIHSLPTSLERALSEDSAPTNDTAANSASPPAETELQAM
Kind of assay: Akt (Thr308) phosphorylation in hFPR2-FlpIn-CHO cells. The class given is cell-based. Conditions: for ΔLog(τ/KA), Akt 1/2/3 (Thr308) phosphorylation, hFPR2-Flpln-CHO: normalized transduction coefficient, reference agonist Cmpd43; for Log(τ/KA), Akt 1/2/3 (Thr308) phosphorylation, hFPR2-Flpln-CHO: transduction coefficient.
Excerpt: as §1, §2
Measurement of Akt1/2/3 phosphorylation and Akt 1: The same lysate was used for measurement of Akt1/2/3 phosphorylation (Ser473) and Akt1 (Thr308). Cells were lysed in SureFire lysis buffer and transferred to 384-well opaque proxiplates. Under low-light conditions, a 1:10:40 (v:v:v) dilution of AlphaScreen acceptor beads:Surefire activation buffer:Surefire reaction buffer was prepared and the plate was incubated in the dark at RT for 2 h. Then, a 1:20 (v:v) dilution of AlphaScreen donor beads/dilution was prepared and incubated in the dark at RT for another 2 h, before the fluorescence signal was measured by used of a Fusion-α plate reader (PerkinElmer Life and Analytical Sciences) with standard AlphaScreen settings. Receptor mediated phosphorylation of Akt1/2/3 (Ser473) and Akt1 (Thr308) were determined using the AlphaScreen™ […] SureFire™ kit, as per as per manufacturer's instructions. Data were normalized to the maximal response elicited by 10% (v:v) FBS at the same time point.
as §3, §4

[1] abbreviates: Table 9, read-out: potency (pEC50) Ca^2+i, hFPR1-FlpInCHO cells in vitro (converted).
Setting [2] is: Table 3, percentage of Akt1/2/3 phosphorylation elicited by 10% FBS, read-out: Emax (%), Akt 1 (Thr308) phosphorylation, hFPR2-Flpln-CHO.
Where [3] appears, read: Table 8, percent of response elicited by 10% FBS, read-out: Emax, Akt 1/2/3 (Thr308) phosphorylation, hFPR2-Flpln-CHO.

The structures appear in SMILES notation. Where two headings read alike, the source gives them in different places.

With `CC(C)C1C(NC(=O)Nc2ccc(Cl)cc2)C(=O)N(c2ccccc2)N1C` (centres unmarked) [BIDI-002], the Emax on hFPR1 (Table 1, percentage of [Ca^2+]i mobilization elicited by ATP, read-out: Emax (%), [Ca^2+]i mobilization, hFPR1-Flpln-CHO) is 43 ± 6%; on hFPR1 (Table 8, percent of response elicited by ATP, read-out: Emax, [Ca^2+]i mobilization, hFPR1-Flpln-CHO), 43 ± 6%; at hFPR2 (setting [2]) it was 27 ± 2%; at hFPR2 (setting [3]) it was 27 ± 2%. Moreover, the EC50 at hFPR1 (Table 1, read-out: pEC50, [Ca^2+]i mobilization, hFPR1-Flpln-CHO (converted)) is 11 nM; on hFPR1 (Table 8, read-out: pEC50, [Ca^2+]i mobilization, hFPR1-Flpln-CHO (converted)) it was 10 nM; on hFPR1 (setting [1]), 11 nM; on hFPR2 (Table 3, read-out: pEC50, Akt 1 (Thr308) phosphorylation, hFPR2-Flpln-CHO (converted)), 138 nM; at hFPR2 (Table 8, read-out: pEC50, Akt 1/2/3 (Thr308) phosphorylation, hFPR2-Flpln-CHO (converted)), 126 nM. Besides, the “ΔLog(τ/KA), [Ca^2+]i mobilization, hFPR1-Flpln-CHO” value at hFPR1 (Table 8, normalized transduction coefficient, reference agonist Cmpd43) was determined as 0.0. Also, on hFPR1 (Table 8, transduction coefficient), the “Log(τ/KA), [Ca^2+]i mobilization, hFPR1-Flpln-CHO” value is on record as 8.0 ± 0.2. The “ΔLog(τ/KA), Akt 1/2/3 (Thr308) phosphorylation, hFPR2-Flpln-CHO” value at hFPR2 (Table 8) is 0.0. Further, at hFPR2 (Table 8), the “Log(τ/KA), Akt 1/2/3 (Thr308) phosphorylation, hFPR2-Flpln-CHO” value is 7.0 ± 0.2.

With `Cc1cc(Cc2cccnc2)c(=O)n(CC(=O)Nc2ccc(Cl)cc2)n1` [MIPS-0010396], the EC50 on hFPR1 (setting [1]) is 33100 nM; on hFPR1 (Table 10, receptor not given, ND = Not detectable, read-out: Calcium pEC50 (converted)), 33100 nM. The “Calcium Rmax” value at hFPR1 (Table 10, receptor not given, ND = Not detectable) is reported as 22 ± 2.

For the compound `CSCC[C@H](NC=O)C(=O)N[C@@H](CC(C)C)C(=O)N[C@@H](Cc1ccccc1)C(=O)O` [fMLP, N-formyl-Met-Leu-Phe], the Emax on hFPR2 (setting [2]) came to 7 ± 2%. Also, at hFPR2 (Table 8), the “ΔLog(τ/KA), Akt 1/2/3 (Thr308) phosphorylation, hFPR2-Flpln-CHO” value was −2.1 ± 0.3 and the “Log(τ/KA), Akt 1/2/3 (Thr308) phosphorylation, hFPR2-Flpln-CHO” value is reported as 4.8 ± 0.1. Besides, at hFPR2 (setting [3]), the Emax was found to be 21 ± 2%.
